Laboratory results taken from article PMC8464850, “Sulfonium Ligands of the α7 nAChR” (Molecules, 2021).
Blank lines part the entries; values can stand above or below the compound they belong to.

Legend:
α7 nAChR [1] = molecular target: T1, α7 nAChR (Homo sapiens, UniProt P36544); experiment: α7 responses on co-application with the type II PAM TQS (silent agonism); format: cell-based
T1 construct: expressed in transfected cells; host or cells: Xenopus laevis oocytes (injected RNA)
Protocol: (§1) Compounds were co-applied at a concentration of 100 µM with 30 µM racemic TQS (Figure 3A). All compounds except S4, S5, and S8 gave large responses when co-applied with TQS, consistent with silent agonism of α7 (see Table S1 for ANOVA). Active compounds were also evaluated across a range of concentrations with the alternative PAM, PNU-120596 (Figure 3B). The curve-fit values for Imax (Table 1) should be taken only as approximation of the relative efficacies of the compounds, due to the large variability frequently observed in PNU-120596-potentiated responses, as evidenced by the large SEMs of the responses obtained with high concentrations.
(§2) Figure 3 Responses of α7 nAChR to sulfonium compounds coapplied with PAMs. (A) Potentiation of α7 responses with 30 µM racemic TQS. Shown are the average net-charge responses of seven or eight oocytes ± SEM. (B) Concentration-response studies of peak currents generated by compounds that gave positive responses with TQS, coapplied with 10 µM PNU-120596. Each point represents the average (±SEM) of at least four oocytes.
The human nAChR clones were obtained from Jon Lindstrom (University of Pennsylvania, Philadelphia, PA, USA). Mouse muscle subunit clones were obtained from Jim Boulter (Salk Institute, La Jolla, CA, USA) and Paul Gardner (Dartmouth, Hanover, NH, USA). The human resistance-to-cholinesterase 3 (RIC3) clone was obtained from Millet Treinin (Hebrew University, Jerusalem, Israel) and co-injected with α7 to improve the level and speed of α7 receptor expression without affecting the pharmacological properties of the receptors. Subsequent to linearization and purification of the plasmid DNAs, RNAs were prepared using the mMessage mMachine in vitro RNA transcription kit (Ambion, Austin, TX, USA).
(§3) Experiments were conducted using OpusXpress 6000A (Molecular Devices, Union City, CA, USA). Both the voltage and current electrodes were filled with 3 M KCl. Oocytes were voltage-clamped at −60 mV at room temperature (24 °C). The oocytes were bath-perfused with Ringer’s solution (115 mM NaCl, 2.5 mM KCl, 1.8 mM CaCl2, 10 mM HEPES, and 1 μM atropine, pH 7.2) at 2 mL/min for α7 receptors, or 4 mL/min for heteromeric nAChR. To evaluate the effects of experimental compounds, responses were compared to control ACh-evoked responses, defined as the average of two initial applications of ACh made before test applications. ACh control concentrations were 60 µM for α7 receptors; 100 µM for α4(3)β2(2) and α3β4 receptors; 30 µM for α4β2α6β2β3 and muscle-type (αβ1εδ) receptors; and 10 µM for α4(3)β2(2) and α4(2)β2(2)α5 receptors.
(§4) Solutions were applied from 96-well plates via disposable tips. Drug applications were 12 s in duration, followed by 181 s washout periods for α7 receptors, or 6 s in duration followed by 301 s washout periods for heteromeric nAChR. The responses were calculated as both peak current amplitudes and net charge, as previously described. Data were collected at 50 Hz, filtered at 20 Hz for α7 receptors or filtered at 5 Hz for heteromeric nAChR, and analyzed by Clampfit (Molecular Devices, San Jose, CA, USA) and Excel (Microsoft, Redmond, WA, USA). Data were expressed as means ± SEM from at least four oocytes for each experiment and plotted with Kaleidagraph 4.5.2 (Abelbeck Software, Reading, PA, USA). Multi-cell averages were calculated for comparisons of complex responses. Averages of the normalized data were calculated for each of the 10,322 points in each of the 206.44 s traces (acquired at 50 Hz), as well as the standard errors for those averages.

α7 nAChR [2] = molecular target: T1, α7 nAChR; experiment: Inhibition of α7 ACh-evoked responses; format: cell-based
Protocol: Figure 4 Effects sulfonium compounds on α7 ACh-evoked net-charge responses. (A) Effects of the sulfonium compounds at 100 µM co-applied with 60 µM relative to responses to 60 µM ACh applied alone. Data are the averages (±SEM) from seven or eight cells under each condition. (B) Effects of select sulfonium compounds at 1 mM co-applied with 60 µM relative to responses to 60 µM ACh applied alone. Data are the averages (±SEM) from seven or eight cells under each condition. Statistical significance was determined by pairwise t-test with p values corrected for multiple comparisons; * p < 0.05, ** p < 0.001.
The sulfonium compounds that were active with TQS but produced little inhibition of ACh response at a concentration of 100 µM were tested as inhibitors of ACh response at a concentration of 1 mM (Figure 4B).
We tested S8 across a range of concentrations for its ability to inhibit 60 µM ACh responses (Figure 5A). Note that we use 60 µM as an ACh control because this concentration gives nearly maximal (93%) net-charge responses, with the time course of the responses roughly following the speed of solution exchange. […] We tested whether inhibition of α7 responses by S8 was surmountable by increasing ACh concentration, consistent with a competitive mechanism of inhibition. However, since α7 responses to concentrations of ACh greater than 60 µM occur more rapidly than solution exchange in the chamber, we first pre-applied 5 µM S8 prior to the co-application of 5 µM S8 with either 60 µM or 1 mM ACh (Figure 5B). The 60 µM net-charge responses were reduced to 28 ± 2% of controls (n = 8) and 60 µM peak currents to 21 ± 3 % controls. The 1 mM net-charge responses were reduced to 56 ± 6 % of those obtained without S8 co-application, although the S8 co-application increased the peak-current amplitudes compared to 60 µM controls from 1.78 ± 0.15 to 3.72 ± 0.81 (n = 8).
Figure 5 Inhibition of α7 ACh-evoked responses by S8. (A) Concentration-response studies of α7 net-charge responses to 60 µM ACh co-applied with increasing concentrations of S8. To confirm the stability of the ACh responses, applications of ACh plus S8 were alternated with applications of ACh alone. Data are the averages of eight cells (±SEM). See text for curve-fit values. (B) Effects of 5 µM S8 on responses to either 60 µM or 1 mM ACh. The traces shown across the top are the averaged raw data from seven cells, each normalized to the peak current of the first ACh control response shown. In order to assure that the S8 was present at 5 µM throughout the ACh-evoked responses, a 30 s pre-application was made of 5 µM S8 alone. The lower traces show averaged responses to 60 µM or 1 mM ACh alone or with the 5 µM S8 pre- and co-application. The details of the data are described in Methods.
as §3
Solutions were applied from 96-well plates via disposable tips. Drug applications were 12 s in duration, followed by 181 s washout periods for α7 receptors, or 6 s in duration followed by 301 s washout periods for heteromeric nAChR. […]

α3β4 nAChR = molecular target: T2, α3β4 nAChR (Homo sapiens, UniProt P30926+P32297); experiment: Inhibition of α3β4 100 µM ACh-evoked peak currents; format: cell-based
T2 construct: expressed in transfected cells; host or cells: Xenopus laevis oocytes (injected RNA)
T2 sequence (P32297 32-505): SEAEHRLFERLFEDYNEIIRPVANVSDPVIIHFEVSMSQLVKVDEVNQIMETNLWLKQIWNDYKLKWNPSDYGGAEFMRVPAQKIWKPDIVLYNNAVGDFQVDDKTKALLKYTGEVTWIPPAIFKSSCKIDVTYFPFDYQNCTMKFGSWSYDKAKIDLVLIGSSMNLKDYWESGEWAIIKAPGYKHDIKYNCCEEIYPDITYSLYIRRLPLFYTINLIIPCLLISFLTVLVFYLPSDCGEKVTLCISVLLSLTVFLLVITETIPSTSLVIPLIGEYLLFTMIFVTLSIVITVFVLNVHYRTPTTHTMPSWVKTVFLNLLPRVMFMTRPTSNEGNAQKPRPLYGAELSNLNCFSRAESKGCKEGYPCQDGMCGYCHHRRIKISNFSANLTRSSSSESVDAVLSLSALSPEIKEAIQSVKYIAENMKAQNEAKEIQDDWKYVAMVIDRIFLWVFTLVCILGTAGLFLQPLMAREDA
T2 sequence (P30926 22-498): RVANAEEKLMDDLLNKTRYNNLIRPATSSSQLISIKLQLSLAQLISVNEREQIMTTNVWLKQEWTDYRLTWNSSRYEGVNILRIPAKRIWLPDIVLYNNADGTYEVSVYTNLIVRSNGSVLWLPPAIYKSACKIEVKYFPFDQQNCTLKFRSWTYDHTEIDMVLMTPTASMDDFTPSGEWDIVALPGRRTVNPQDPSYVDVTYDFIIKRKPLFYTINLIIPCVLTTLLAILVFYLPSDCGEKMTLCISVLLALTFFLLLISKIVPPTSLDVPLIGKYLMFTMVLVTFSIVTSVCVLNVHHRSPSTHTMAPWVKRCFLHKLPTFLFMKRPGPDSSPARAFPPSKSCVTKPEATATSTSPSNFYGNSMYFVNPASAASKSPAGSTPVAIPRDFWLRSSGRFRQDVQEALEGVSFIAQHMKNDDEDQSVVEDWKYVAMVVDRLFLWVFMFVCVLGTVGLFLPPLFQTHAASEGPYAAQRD
Protocol: Although none of the other sulfonium compounds activated neuronal heteromeric receptors, several of them produced inhibition of ACh-evoked responses. Shown in Figure 7A are concentration-response studies for the compounds that were active antagonists of α3β4 nAChR (Table 3). Some compounds were also tested as antagonists of α4β2 subtypes formed with concatamers (Figure 7B).
Figure 7 Inhibition of heteromeric nAChR by sulfonium compounds. (A) Inhibition of α3β4 100 µM ACh-evoked peak currents by the co-application of the sulfonium compounds. Data are the averaged of six to eight oocytes (±SEM). To confirm the stability of the ACh responses, applications of ACh plus the sulfonium compounds were alternated with applications of ACh alone. (B) Inhibition of ACh control peak-current responses of α4-containing nAChR formed with concatamers by 100 µM of the sulfonium compounds indicated. Data are the average of six to eight oocytes (±SEM).
as §3, §4

α7 nAChR [3] = molecular target: T1, α7 nAChR; experiment: α7 concentration-response on co-application with 10 µM PNU-120596; format: cell-based; conditions: peak currents, co-applied with 10 µM PNU-120596, Hill fit
Protocol: as §1, §2, §3, §4

[4] = parameters: method as in PMID 11456386; conditions: cited from earlier work
ganglionic (α3β4) nAChR = system: ganglionic (α3β4) nAChR; parameters: method as in earlier work; conditions: 100 µM suplatast; ref 29 (Zhou et al.); cited from earlier work
human α7 receptors = molecular target: T3, human α7 receptors (Homo sapiens, UniProt P36544); parameters: method as in PMID 12183330; conditions: 60 µM ACh; cited from earlier work
T3 construct: expressed in transfected cells; host or cells: Xenopus laevis oocytes (injected RNA)
T3 sequence (P36544 23-502): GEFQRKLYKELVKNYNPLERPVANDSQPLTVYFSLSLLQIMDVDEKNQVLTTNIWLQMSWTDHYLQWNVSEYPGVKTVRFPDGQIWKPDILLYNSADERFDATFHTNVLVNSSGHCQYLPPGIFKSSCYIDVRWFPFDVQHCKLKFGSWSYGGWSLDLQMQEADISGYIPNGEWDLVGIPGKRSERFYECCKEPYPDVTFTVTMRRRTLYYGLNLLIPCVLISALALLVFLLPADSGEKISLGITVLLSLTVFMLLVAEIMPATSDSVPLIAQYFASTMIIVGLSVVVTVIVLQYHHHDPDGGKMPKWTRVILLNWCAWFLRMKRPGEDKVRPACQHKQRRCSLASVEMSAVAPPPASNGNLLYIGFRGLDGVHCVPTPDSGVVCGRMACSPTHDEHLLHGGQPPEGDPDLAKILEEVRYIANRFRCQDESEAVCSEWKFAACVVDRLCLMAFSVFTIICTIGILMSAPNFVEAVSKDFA

[5] = general knowledge, no reference given; cited from earlier work
[6] = molecular target: T4, muscle-type (α1β1εδ) receptors (Mus musculus, UniProt P02716+P04756+P20782); conditions: cited from earlier work
T4 construct: expressed in transfected cells; host or cells: Xenopus laevis oocytes (injected RNA)
T4 sequence (P04756 21-457): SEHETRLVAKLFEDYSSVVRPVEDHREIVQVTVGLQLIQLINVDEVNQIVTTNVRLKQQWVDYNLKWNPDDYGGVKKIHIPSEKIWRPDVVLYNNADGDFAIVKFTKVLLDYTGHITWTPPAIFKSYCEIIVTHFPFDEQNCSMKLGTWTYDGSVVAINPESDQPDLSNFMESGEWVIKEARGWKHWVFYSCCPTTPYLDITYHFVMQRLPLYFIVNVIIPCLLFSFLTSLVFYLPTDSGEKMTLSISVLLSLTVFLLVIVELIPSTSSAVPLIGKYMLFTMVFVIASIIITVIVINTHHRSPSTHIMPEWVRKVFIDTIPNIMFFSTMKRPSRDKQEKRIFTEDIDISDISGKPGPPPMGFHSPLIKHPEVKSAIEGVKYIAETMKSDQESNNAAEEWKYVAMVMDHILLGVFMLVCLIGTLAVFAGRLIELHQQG
T4 sequence (P09690 24-501 partner): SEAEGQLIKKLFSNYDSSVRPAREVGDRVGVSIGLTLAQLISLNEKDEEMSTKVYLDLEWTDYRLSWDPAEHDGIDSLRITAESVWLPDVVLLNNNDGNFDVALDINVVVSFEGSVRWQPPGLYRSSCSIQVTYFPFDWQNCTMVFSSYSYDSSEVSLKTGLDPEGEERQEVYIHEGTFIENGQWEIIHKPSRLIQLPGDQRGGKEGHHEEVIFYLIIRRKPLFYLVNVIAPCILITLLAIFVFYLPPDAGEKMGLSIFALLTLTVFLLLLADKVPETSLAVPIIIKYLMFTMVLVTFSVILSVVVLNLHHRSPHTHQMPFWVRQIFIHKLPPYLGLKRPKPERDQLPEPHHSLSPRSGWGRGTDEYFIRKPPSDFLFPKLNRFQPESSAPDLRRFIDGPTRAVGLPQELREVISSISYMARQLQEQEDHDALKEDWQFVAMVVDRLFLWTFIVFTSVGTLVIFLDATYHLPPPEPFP
T4 sequence (P20782 21-493): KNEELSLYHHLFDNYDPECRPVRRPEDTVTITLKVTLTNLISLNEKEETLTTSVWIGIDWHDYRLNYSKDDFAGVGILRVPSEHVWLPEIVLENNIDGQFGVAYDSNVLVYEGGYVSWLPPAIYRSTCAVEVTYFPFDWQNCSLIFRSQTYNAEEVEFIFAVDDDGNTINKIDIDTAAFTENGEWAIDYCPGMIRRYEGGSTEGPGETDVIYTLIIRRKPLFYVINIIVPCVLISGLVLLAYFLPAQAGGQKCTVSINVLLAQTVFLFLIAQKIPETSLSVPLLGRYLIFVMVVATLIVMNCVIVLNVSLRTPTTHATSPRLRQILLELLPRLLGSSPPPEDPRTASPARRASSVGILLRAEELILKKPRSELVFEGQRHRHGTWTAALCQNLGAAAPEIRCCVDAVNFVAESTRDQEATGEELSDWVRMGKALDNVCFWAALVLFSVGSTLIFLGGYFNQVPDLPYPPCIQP
T4 sequence (P02716 25-520): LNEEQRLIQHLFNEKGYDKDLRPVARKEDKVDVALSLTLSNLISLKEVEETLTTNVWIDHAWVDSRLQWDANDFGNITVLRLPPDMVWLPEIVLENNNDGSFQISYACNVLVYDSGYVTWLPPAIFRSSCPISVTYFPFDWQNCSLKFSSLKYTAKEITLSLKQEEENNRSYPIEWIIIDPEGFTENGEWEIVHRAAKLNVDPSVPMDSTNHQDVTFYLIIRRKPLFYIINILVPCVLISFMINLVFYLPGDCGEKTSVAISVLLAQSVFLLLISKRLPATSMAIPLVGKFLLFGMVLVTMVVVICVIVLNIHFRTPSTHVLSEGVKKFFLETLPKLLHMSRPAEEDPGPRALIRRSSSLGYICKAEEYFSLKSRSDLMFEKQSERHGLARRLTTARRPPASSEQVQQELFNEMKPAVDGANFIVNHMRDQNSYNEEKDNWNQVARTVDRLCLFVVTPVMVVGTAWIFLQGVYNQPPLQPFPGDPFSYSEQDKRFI

T1 sequence (P36544 23-502): as the sequence (P36544 23-502) above

α7 functional classification (silent agonist / inactive) (α7 nAChR [1]; inactive alone, active with a PAM = silent agonist): silent agonist activity
inhibition at 100 µM (α7 nAChR [2]; compound co-applied at 100 µM, net charge, read-out: inhibition of responses to 60 µM ACh): ~50%
IC50 (α3β4 nAChR; co-application with 100 µM ACh, peak currents): 4.5 ± 0.6 µM
IMax (PNU Activation) (α7 nAChR [3]; approximation only): 2.2 ± 0.3
EC50 (α7 nAChR [3]; read-out: EC50 (PNU Activation)): 12.5 ± 4.9 µM
SMILES: CCOCC(O)COc1ccc(NC(=O)CC[S+](C)C)cc1.Cc1ccc(S(=O)(=O)[O-])cc1 (centres unmarked) [Compound S6, (3-((4-(3-ethoxy-2-hydroxypropoxy)phenyl)amino)-3-oxopropyl)dimethylsulfonium tosylate, reference compound]
relative activity as α7 silent agonist / desensitizer (rank order) (α7 nAChR [1]; 100 µM with 30 µM TQS, Figure 3A, listed as suplatast): most desensitizing
surmountability of α3β4 inhibition by ACh (α3β4 nAChR; 5 µM S6, 1 mM ACh vs 30 µM ACh, data not shown): not surmountable by increasing ACh concentration
distribution to the brain [4]: poor
oral bioavailability [4]: orally bioavailable
effect on ganglionic (α3β4) nAChR (ganglionic (α3β4) nAChR): channel block

SMILES: CC(=O)OCC[N+](C)(C)C [ACh, Acetylcholine chloride, reference compound]
1 mM ACh peak-current amplitudes compared to 60 µM controls (α7 nAChR [2]; 1 mM ACh without S8, n = 8): 1.78 ± 0.15
net-charge response as share of maximal (human α7 receptors): 93%

SMILES: O=[N+]([O-])c1ccc(O)cc1 [para-nitrophenol]
pKa for the phenolic hydroxyl [5]: ~ 7

SMILES: C[N+](C)(C)C [TMA, tetramethylammonium ion]
activation of muscle-type receptors [6]: not an effective activator
